Source: patent publication US20210017200A1, “Hydrocarbyl Tin Complex with Antitumor Activity and Preparation Method Thereof” (priority 2020, published 2021)

How the values were obtained:
Type in all cases: cell-based
[1] = tested on: A549 (human lung cancer cells); details: MTT, 72 hours
Protocol: (§1) MCF-7, HT-29, A549 and HepG2 cells are got from American Tissue Culture Collection, which are cultured with the culture medium containing 10% bovine fetal serum in a CO2-containing incubator at 37° C. The MTT method is used to detect cell proliferation and growth inhibition. The number of experimental cells is adjusted to obtain the absorbance at 570 nm, 6 concentrations are set for the compound test solution (0.1 nmol/L˜10 μmol/L). The cells are treated for 72 hours. At least 3 parallel experiments and 3 repeated experiments are conducted for each concentration. The IC50 value is determined by statistical analysis.
(§2) Taking cisplatin as the contrast, the in-vitro growth inhibitory activity of Compound 1 and Compound 2 on tumor cells are tested, including MCF7 (human breast cancer cells), HT-29 (human colon cancer cells), A549 (human lung cancer cells) and HepG2 (liver cancer cells).

[2] = tested on: MCF7 (human breast cancer cells); details: MTT, 72 hours
Protocol: as §1, §2

[3] = tested on: HT-29 (human colon cancer cells); details: HT-29 cells, MTT, 72 hours
Protocol: as §1, §2

[4] = tested on: HepG2 (liver cancer cells); details: MTT, 72 hours
Protocol: as §1, §2

Tri-n-butyltin (IV) (4-methoxyphenyl) Acetylenyl Phosphonic Acid Derivatives [Compound 1]
IC50 [1]: 243 nM | IC50 [2]: 853 nM | IC50 [3]: 65 nM | IC50 [4]: 329 nM
